pEC50, pKi: −log10 of the molar value.
Legend:
BRD4 (BDI_K57-E168) = target: T1, BRD4 (BDI_K57-E168) (Homo sapiens, UniProt O60885); assay: TR-FRET bromodomain binding assay, BRD4 first bromodomain; conditions: His-tagged BRD4 BD1, 100 nM Alexa647 probe; Ki calculated from IC50, probe Kd and probe concentration
T1 construct: BD1: amino acids K57-E168; made in house
Method: (§1) A time-resolved fluorescence resonance energy transfer (TR-FRET) assay was used to determine the affinities of compounds of the Examples listed in Table 1 for each bromodomain of BRD4. His-tagged first (BD1: amino acids K57-E168) and second (BD2: amino acids E352-E168) bromodomains of BRD4 were expressed and purified. An Alexa647-labeled BET-inhibitor was used as the fluorescent probe in the assay.
(§2) Compound dilution series were prepared in DMSO via a 3-fold serial dilution from 2.5 mM to 42 nM. Compounds were then diluted 6:100 in assay buffer (20 mM Sodium Phosphate, pH 6.0, 50 mM NaCl, 1 mM Ethylenediaminetetraacetic acid disodium salt dihydrate, 0.01% Triton X-100, 1 mM DL-Dithiothreitol) to yield 3× working solutions. Six microliters (μL) of the working solution was then transferred to white, low-volume assay plates (Costar #3673). A 1.5× assay mixture containing His-tagged bromodomain, Europium-conjugated anti-His antibody (Invitrogen PV5596) and the Alexa-647-conjugated probe molecule was also prepared. Twelve μL of this solution were added to the assay plate to reach a final volume of 18 μL. The final concentration of 1× assay buffer contains 2% DMSO, 50 μM-0.85 nM compound, 8 nM His-tagged bromodomain, 1 nM Europium-conjugated anti-His-tag antibody and 100 nM or 30 nM probe (for BDI or BDII, respectively). After a one-hour incubation at room temperature, TR-FRET ratios were determined using an Envision multilabel plate reader (Ex 340, Em […]).
(§3) TR-FRET data were normalized to the means of 24 no-compound controls (“high”) and 8 controls containing 1 μM un-labeled probe (“low”). […] Inhibition constants (Ki) were calculated from the IC50s, probe Kd and probe concentration. […] The minimum significant ratio was determined to evaluate assay reproducibility (Eastwood et al., (2006) J Biomol Screen, 11: 253-261). The MSR was determined to be 2.03 for BDI and 1.93 for BDII, and a moving MSR (last six run MSR overtime) for both BDI and BDII was typically <3.

BRD4 (BDII_E352-M457) = target: T2, BRD4 (BDII_E352-M457) (Homo sapiens, UniProt O60885); assay: TR-FRET bromodomain binding assay, BRD4 second bromodomain; conditions: His-tagged BRD4 BD2, 30 nM Alexa647 probe; Ki calculated from IC50, probe Kd and probe concentration
T2 construct: made in house
Method: as §1, §2, §3

[1] = tested on: breast cancer cell line MX-1; assay: MX-1 cell line proliferation assay, Method A; type: cell-based; conditions: Homo sapiens, MX1; MX-1 cells, 96-well, 72 hours, Cell Titer Glo; read-out: Cellular proliferation: EC50 Method A
Procedure, shortened: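 MX-1 breast cancer cells (5000/well) were attached overnight in RPMI 1640 with 10% FBS, then exposed for 3 days to compound at 0.0001–3 μM final. Cell Titer Glo luminescence was normalized to DMSO controls, and EC50s were obtained by sigmoidal fitting.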

SMILES | pKi (BRD4 (BDI_K57-E168)) | pKi (BRD4 (BDII_E352-M457)) | pEC50 [1]
CCS(=O)(=O)c1ccc(OCC2CC2(F)F)c(-c2cn(C)c(=O)c3[nH]c(CN4CCN(c5ncccn5)CC4)cc23)c1 (centres unmarked) [Example 19, 4-{2-[(2,2-difluorocyclopropyl)methoxy]-5-(ethylsulfonyl)phenyl}-6-methyl-2-{[4-(pyrimidin-2-yl)piperazin-1-yl]methyl}-1,6-dihydro-7H-pyrrolo[2,3-c]pyridin-7-one] | 8.21 | 7.21 | –
COc1ccc(S(=O)(=O)Nc2cccc(Oc3ccc(S(C)(=O)=O)cc3-c3cn(C)c(=O)c4[nH]ccc34)c2)cc1OC [Example 53, 3,4-dimethoxy-N-{3-[2-(6-methyl-7-oxo-6,7-dihydro-1H-pyrrolo[2,3-c]pyridin-4-yl)-4-(methylsulfonyl)phenoxy]phenyl}benzenesulfonamide] | 8.47 | 9.00 | 6.84
Cn1cc(-c2cc(S(C)(=O)=O)ccc2NC2CCN(S(=O)(=O)/C=C/c3ccccc3)CC2)c2cc[nH]c2c1=O [Example 102, 6-methyl-4-{5-(methylsulfonyl)-2-[(1-{[(E)-2-phenylethenyl]sulfonyl}piperidin-4-yl)amino]phenyl}-1,6-dihydro-7H-pyrrolo[2,3-c]pyridin-7-one] | 8.22 | 8.17 | 7.17

From patent US10131657B2, “Bromodomain inhibitors” (AbbVie Inc., priority 2013, dated 2018)
